target: T1, recombinant human Meningioma Expressed Antigen 5 (MGEA5), also referred to as O-GlcNAcase (OGA) (Homo sapiens, UniProt O60502); experiment: OGA biochemical assay (inhibition of FM-GlcNAc hydrolysis, fluorescence); details: FM-GlcNAc substrate, 6 h at room temperature, read-out: Enzymatic hOGA, pIC50 (converted)
T1 construct: Full length OGA enzyme was purchased at OriGene (cat #TP322411); purchased OriGene TP322411
T1 sequence (O60502 1-916): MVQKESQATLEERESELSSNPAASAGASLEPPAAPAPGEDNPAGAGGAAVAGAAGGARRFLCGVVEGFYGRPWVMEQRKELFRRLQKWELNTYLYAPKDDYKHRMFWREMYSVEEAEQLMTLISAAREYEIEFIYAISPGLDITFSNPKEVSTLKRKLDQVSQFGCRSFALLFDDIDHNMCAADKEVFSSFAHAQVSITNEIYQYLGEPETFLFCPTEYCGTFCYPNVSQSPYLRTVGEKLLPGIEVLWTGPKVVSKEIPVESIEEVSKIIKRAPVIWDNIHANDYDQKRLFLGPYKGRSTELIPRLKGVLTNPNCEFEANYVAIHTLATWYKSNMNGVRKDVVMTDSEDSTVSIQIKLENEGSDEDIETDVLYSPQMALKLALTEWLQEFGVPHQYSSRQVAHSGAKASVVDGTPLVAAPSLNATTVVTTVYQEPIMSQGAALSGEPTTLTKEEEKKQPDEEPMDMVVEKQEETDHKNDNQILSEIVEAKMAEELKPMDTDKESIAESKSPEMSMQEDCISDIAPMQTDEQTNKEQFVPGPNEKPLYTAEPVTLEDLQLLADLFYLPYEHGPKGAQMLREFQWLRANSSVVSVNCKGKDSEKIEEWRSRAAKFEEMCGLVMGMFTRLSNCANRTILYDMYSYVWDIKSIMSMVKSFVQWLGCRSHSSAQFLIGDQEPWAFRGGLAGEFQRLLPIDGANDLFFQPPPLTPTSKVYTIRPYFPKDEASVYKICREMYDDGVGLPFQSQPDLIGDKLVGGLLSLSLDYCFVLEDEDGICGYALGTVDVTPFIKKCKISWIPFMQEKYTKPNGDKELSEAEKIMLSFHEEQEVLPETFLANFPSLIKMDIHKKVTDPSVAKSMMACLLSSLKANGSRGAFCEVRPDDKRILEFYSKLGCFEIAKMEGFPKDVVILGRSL
Source text: The assay is based on the inhibition of the hydrolysis of fluorescein mono-β-D-N-Acetyl-Glucosamine (FM-GlcNAc) (Mariappa et al. 2015, Biochem J 470:255) by the recombinant human Meningioma Expressed Antigen 5 (MGEA5), also referred to as O-GlcNAcase (OGA). The hydrolysis FM-GlcNAc (Marker Gene technologies, cat #M1485) results in the formation of β-D-N-glucosamineacetate and fluorescein. The fluorescence of the latter can be measured at excitation wavelength 485 nm and emission wavelength 538 nm. An increase in enzyme activity results in an increase in fluorescence signal. Full length OGA enzyme was purchased at OriGene (cat #TP322411). The enzyme was stored in 25 mM Tris.HCl, pH 7.3, 100 mM glycine, 10% glycerol at −20° C. Thiamet G and GlcNAcStatin were tested as reference compounds (Yuzwa et al. 2008 Nature Chemical Biology 4:483; Yuzwa et al. 2012 Nature Chemical Biology 8:393). The assay was performed in 200 mM Citrate/phosphate buffer supplemented with 0.005% Tween-20. 35.6 g Na2HPO4 2H2O (Sigma, #C0759) were dissolved in 1 L water to obtain a 200 mM solution. 19.2 g citric acid (Merck, #1.06580) was dissolved in 1 L water to obtain a 100 mM solution. pH of the sodiumphosphate solution was adjusted with the citric acid solution to 7.2. The buffer to stop the reaction consists of a 500 mM Carbonate buffer, pH 11.0. 734 mg FM-GlcNAc were dissolved in 5.48 mL DMSO to obtain a 250 mM solution and was stored at −20° C. OGA was used at a 2 nM concentration and FM-GlcNAc at a 100 uM final concentration. Dilutions were prepared in assay buffer.
50 nl of a compound dissolved in DMSO was dispensed on Black Proxiplate™ 384 Plus Assay plates (Perkin Elmer, #6008269) and 3 μl fl-OGA enzyme mix added subsequently. Plates were pre-incubated for 60 min at room temperature and then 2 μl FM-GlcNAc substrate mix added. […] Plates were briefly centrifuged for 1 min at 1000 rpm and incubate at room temperature for 6 h. To stop the reaction 5 μl STOP buffer were added and plates centrifuge again 1 min at 1000 rpm. Fluorescence was quantified in the Thermo Scientific Fluoroskan Ascent or the PerkinElmer EnVision with excitation wavelength 485 nm and emission wavelength 538 nm.
For analysis a best-fit curve is fitted by a minimum sum of squares method. From this an IC50 value and Hill coefficient was obtained. High control (no inhibitor) and low control (saturating concentrations of standard inhibitor) were used to define the minimum and maximum values.

| SMILES | IC50 [nM] |
| --- | --- |
| Cc1cc(C[C@H]2CCCN(C(C)c3ccc4cn(C)nc4c3)C2)cc(C)n1 (mixture of isomers) [Compound 16] | 126 |
| COc1cc(C2CCCN(C(C)c3ccc4oc(C)nc4n3)C2)cc(C)n1 (racemic) [Compound 18] | 20 |
| Cc1cc(C2CCCN(C(C)c3ccc4oc(C)nc4n3)C2)cc(C(F)(F)F)n1 (racemic) [Compound 19] | 20 |
| COc1cc(C2CCCN(C(C)c3ccc4oc(C)nc4n3)C2)cc(C(F)(F)F)n1 (racemic) [Compound 20] | 20 |

Further lines, results first:

| IC50 [nM] | SMILES |
| --- | --- |
| 3.16 | Cc1cc(C[C@H]2CCCN(C(C)c3ccc4oc(C)nc4n3)C2)cc(C)n1 (mixture of isomers) [Compound 22] |
| 12.6 | Cc1cc(C[C@H]2CCCN(C(C)c3ccc4oc(C)nc4n3)C2)cc(C(F)(F)F)n1 (mixture of isomers) [Compound 24ab] |
| 15.8 | Cc1cc(C[C@H]2CCCN(C(C)c3ccc4oc(C)nc4n3)C2)cc(OC(F)(F)F)n1 (mixture of isomers) [Compound 25ab] |
| 12.6 | Cc1cc(C[C@H]2CCCN(C(C)c3cnc4oc(C)nc4c3)C2)cc(C)n1 (mixture of isomers) [Compound 30] |
| > 10000 | Cc1cc(C[C@@H]2CCN(C(C)c3ccc4oc(C(C)C)nc4n3)C2)cc(C)n1 (mixture of isomers) [Compound 31] |
| 53.7 | Cc1cc(C[C@@H]2CCN(C(C)c3ccc4sc(C)nc4n3)C2)cc(C)n1 (mixture of isomers) [Compound 43] |

same assay, conditions: FM-GlcNAc substrate, maximal effect, read-out: Enzymatic Emax (%)

| SMILES | Emax [%] |
| --- | --- |
| Cc1cc(C[C@H]2CCCN(C(C)c3ccc4cn(C)nc4c3)C2)cc(C)n1 (mixture of isomers) [Compound 16] | 97 |
| COc1cc(C2CCCN(C(C)c3ccc4oc(C)nc4n3)C2)cc(C)n1 (racemic) [Compound 18] | 100 |
| Cc1cc(C2CCCN(C(C)c3ccc4oc(C)nc4n3)C2)cc(C(F)(F)F)n1 (racemic) [Compound 19] | 99 |
| COc1cc(C2CCCN(C(C)c3ccc4oc(C)nc4n3)C2)cc(C(F)(F)F)n1 (racemic) [Compound 20] | 101 |

Continued, values first:

| Emax [%] | SMILES |
| --- | --- |
| 101 | Cc1cc(C[C@H]2CCCN(C(C)c3ccc4oc(C)nc4n3)C2)cc(C)n1 (mixture of isomers) [Compound 22] |
| 103 | Cc1cc(C[C@H]2CCCN(C(C)c3ccc4oc(C)nc4n3)C2)cc(C(F)(F)F)n1 (mixture of isomers) [Compound 24ab] |
| 101 | Cc1cc(C[C@H]2CCCN(C(C)c3ccc4oc(C)nc4n3)C2)cc(OC(F)(F)F)n1 (mixture of isomers) [Compound 25ab] |
| 102 | Cc1cc(C[C@H]2CCCN(C(C)c3cnc4oc(C)nc4c3)C2)cc(C)n1 (mixture of isomers) [Compound 30] |
| 30 | Cc1cc(C[C@@H]2CCN(C(C)c3ccc4oc(C(C)C)nc4n3)C2)cc(C)n1 (mixture of isomers) [Compound 31] |
| 103 | Cc1cc(C[C@@H]2CCN(C(C)c3ccc4sc(C)nc4n3)C2)cc(C)n1 (mixture of isomers) [Compound 43] |

target: T2, OGA (Homo sapiens, UniProt O60502); experiment: OGA cellular assay (ICC detection of O-GlcNAcylated proteins in HEK293 cells inducible for P301L mutant human Tau); type: cell-based; details: HEK293, HEK293 cells inducible for P301L mutant human Tau, maximum = Thiamet G 200 uM
T2 construct: HEK293 cells inducible for P301L mutant human Tau (isoform 2N4R) were established at Janssen; endogenous in cells; host or cells: HEK293 cells inducible for P301L mutant human Tau (2N4R)
T2 sequence (O60502 1-916): T1 sequence (O60502 1-916)
Procedure: HEK293 cells inducible for P301L mutant human Tau (isoform 2N4R) were established at Janssen. Thiamet-G was used for both plate validation (high control) and as reference compound (reference EC50 assay validation). OGA inhibition is evaluated through the immunocytochemical (ICC) detection of O-GlcNAcylated proteins by the use of a monoclonal antibody (CTD110.6; Cell Signaling, #9875) detecting 0-GlcNAcylated residues as previously described (Dorfmueller et al. 2010 Chemistry & biology, 17:1250). Inhibition of OGA will result in an increase of O-GlcNAcylated protein levels resulting in an increased signal in the experiment. Cell nuclei are stained with Hoechst to give a cell culture quality control and a rough estimate of immediate compounds toxicity, if any. ICC pictures are imaged with a Perkin Elmer Opera Phenix plate microscope and quantified with the provided software Perkin Elmer Harmony 4.1.
Cells were propagated in DMEM high Glucose (Sigma, #D5796) following standard procedures. 2 days before the cell assay cells are split, counted and seeded in Poly-D-Lysine (PDL) coated 96-wells (Greiner, #655946) plate at a cell density of 12,000 cells per cm^2 (4,000 cells per well) in 100 μl of Assay Medium (Low Glucose medium is used to reduce basal levels of GlcNAcylation) (Park et al. 2014 The Journal of biological chemistry 289:13519). At the day of compound test medium from assay plates was removed and replenished with 90 μl of fresh Assay Medium. 10 μl of compounds at a 10fold final concentration were added to the wells. Plates were centrifuged shortly before incubation in the cell incubator for 6 hours. DMSO concentration was set to 0.2%. Medium is discarded by applying vacuum. For staining of cells medium was removed and cells washed once with 100 μl D-PBS (Sigma, #D8537). From next step onwards unless other stated assay volume was always 50 μl and incubation was performed without agitation and at room temperature. Cells were fixed in 50 μl of a 4% paraformaldehyde (PFA, Alpha aesar, #043368) PBS solution for 15 minutes at room temperature. […] Before analysis samples were washed 2 times manually for 5 minutes in ICC base buffer.
Imaging is performed using Perkin Elmer Phenix Opera using a water 20× objective and recording 9 fields per well. Intensity readout at 488 nm is used as a measure of O-GlcNAcylation level of total proteins in wells. To assess potential toxicity of compounds nuclei were counted using the Hoechst staining. IC50-values are calculated using parametric non-linear regression model fitting. As a maximum inhibition Thiamet G at a 200 uM concentration is present on each plate. In addition, a concentration response of Thiamet G is calculated on each plate.

| SMILES | Emax [%] |
| --- | --- |
| COc1cc(C2CCCN(C(C)c3ccc4oc(C)nc4n3)C2)cc(C)n1 (racemic) [Compound 18] | 76 |
| Cc1cc(C2CCCN(C(C)c3ccc4oc(C)nc4n3)C2)cc(C(F)(F)F)n1 (racemic) [Compound 19] | 68 |
| COc1cc(C2CCCN(C(C)c3ccc4oc(C)nc4n3)C2)cc(C(F)(F)F)n1 (racemic) [Compound 20] | 60 |

The remaining lines, values ahead:

| Emax [%] | SMILES |
| --- | --- |
| 91 | Cc1cc(C[C@H]2CCCN(C(C)c3ccc4oc(C)nc4n3)C2)cc(C)n1 (mixture of isomers) [Compound 22] |
| 91 | Cc1cc(C[C@H]2CCCN(C(C)c3ccc4oc(C)nc4n3)C2)cc(C(F)(F)F)n1 (mixture of isomers) [Compound 24ab] |
| 86 | Cc1cc(C[C@H]2CCCN(C(C)c3ccc4oc(C)nc4n3)C2)cc(OC(F)(F)F)n1 (mixture of isomers) [Compound 25ab] |
| 79 | Cc1cc(C[C@H]2CCCN(C(C)c3cnc4oc(C)nc4c3)C2)cc(C)n1 (mixture of isomers) [Compound 30] |
| -7 | Cc1cc(C[C@@H]2CCN(C(C)c3ccc4oc(C(C)C)nc4n3)C2)cc(C)n1 (mixture of isomers) [Compound 31] |
| 60 | Cc1cc(C[C@@H]2CCN(C(C)c3ccc4sc(C)nc4n3)C2)cc(C)n1 (mixture of isomers) [Compound 43] |

same assay, conditions: HEK293 cells inducible for P301L mutant human Tau, 6 hours incubation; read-out: Cellular hOGA; pEC50 (converted)

| SMILES | EC50 [nM] |
| --- | --- |
| Cc1cc(C[C@H]2CCCN(C(C)c3ccc4cn(C)nc4c3)C2)cc(C)n1 (mixture of isomers) [Compound 16] | > 1000 |
| COc1cc(C2CCCN(C(C)c3ccc4oc(C)nc4n3)C2)cc(C)n1 (racemic) [Compound 18] | 158 |
| Cc1cc(C2CCCN(C(C)c3ccc4oc(C)nc4n3)C2)cc(C(F)(F)F)n1 (racemic) [Compound 19] | 501 |
| COc1cc(C2CCCN(C(C)c3ccc4oc(C)nc4n3)C2)cc(C(F)(F)F)n1 (racemic) [Compound 20] | 631 |

More lines, now with the values ahead:

| EC50 [nM] | SMILES |
| --- | --- |
| 12.6 | Cc1cc(C[C@H]2CCCN(C(C)c3ccc4oc(C)nc4n3)C2)cc(C)n1 (mixture of isomers) [Compound 22] |
| 50.1 | Cc1cc(C[C@H]2CCCN(C(C)c3ccc4oc(C)nc4n3)C2)cc(C(F)(F)F)n1 (mixture of isomers) [Compound 24ab] |
| 200 | Cc1cc(C[C@H]2CCCN(C(C)c3ccc4oc(C)nc4n3)C2)cc(OC(F)(F)F)n1 (mixture of isomers) [Compound 25ab] |
| 200 | Cc1cc(C[C@H]2CCCN(C(C)c3cnc4oc(C)nc4c3)C2)cc(C)n1 (mixture of isomers) [Compound 30] |
| > 1000 | Cc1cc(C[C@@H]2CCN(C(C)c3ccc4oc(C(C)C)nc4n3)C2)cc(C)n1 (mixture of isomers) [Compound 31] |
| 631 | Cc1cc(C[C@@H]2CCN(C(C)c3ccc4sc(C)nc4n3)C2)cc(C)n1 (mixture of isomers) [Compound 43] |

same assay, conditions: HEK293 cells inducible for P301L mutant human Tau, maximum = Thiamet G 200 uM

| SMILES | Emax [%] |
| --- | --- |
| Cc1cc(C[C@H]2CCCN(C(C)c3ccc4cn(C)nc4c3)C2)cc(C)n1 (mixture of isomers) [Compound 16] | 14 |

Source: patent US20210115040A1, “OGA INHIBITOR COMPOUNDS” (Janssen Pharmaceutica NV, priority 2018, published 2021)
